Experimental data taken from patent US6300317A, “Self-assembling polynucleotide delivery system” (The Regents of the University of California, priority 1995, dated 2001).
Read-outs that look alike come from different tables or passages of the source.

Assays:
[1] = test system: calf thymus DNA; assay: Ethidium bromide displacement assay, binding of bis-acridines to double-stranded DNA; settings: computed from ethidium bromide displacement (IC50), noncooperative competitive binding model; read-out: Dissociation Constants of the Bis-acridines from Calf Thymus DNA
Method: The affinity of the bis-acridines for calf thymus DNA was calculated from the displacement of ethidium bromide from double stranded nucleic acids (Nielsen, supra). Ethidium displacement was monitored by the decrease of the ethidium bromide fluorescence (ex.=540 nm, em.=610 nm) that occurs when it is released from DNA. The association constants of the bis-acridines relative to ethidium bromide are calculated from their IC50. In this study, spermidine bis-acridine trihydrochloride (SBA.cndot.3HCl) synthesized as described (Nielsen, supra), was used as the reference compound. As a result of the loss of one of its three positive charges, a slight but significant decrease in affinity is observed when the N^4 amino group of spermidine bis-acridine is engaged in an amide bond with the targeting carbohydrate in compound 21 (Gal-bA.cndot.2 HCl). However, we predict an increase in affinity when spermidine bis-acridine is linked to the highly positively charged NLS peptide SEQ ID NO:1. G. Karup et al., Int J Peptide Protein Res (1988) 32:331-343.

[2] = test system: calf thymus DNA; settings: constant used to compute the bis-acridine binding constants; read-out: intrinsic dissociation constant for ethidium bromide; cited from earlier work

Question: Which Kd [1] does the source give for `O=C(CCCCCS[C@@H]1O[C@H](CO)[C@H](O)[C@H](O)[C@H]1O)NCCCC[C@H](NC(=O)CCCCCS[C@@H]1O[C@H](CO)[C@H](O)[C@H](O)[C@H]1O)C(=O)N[C@@H](CCCCNC(=O)CCCCCS[C@@H]1O[C@H](CO)[C@H](O)[C@H](O)[C@H]1O)C(=O)N(CCCCNc1c2ccccc2nc2ccccc12)CCCNc1c2ccccc2nc2ccccc12` [Gal3 Lys2 -bA] here?
Answer: 5.4 µM

Question: Which Kd [1] does the source give for `c1ccc2c(NCCCCNCCCNc3c4ccccc4nc4ccccc34)c3ccccc3nc2c1` [SBA · 3HCl, N,N'-bis-(9-acridinyl)-4-aza-1,8-diaminooctane] here?
Answer: 0.024 µM

Question: With `CC[n+]1c(-c2ccccc2)c2cc(N)ccc2c2ccc(N)cc21` [ethidium bromide] as the molecule, how does the Kd [2] read?
Answer: 5.3 µM
